Assay results reported in patent US20070293434A9, “Binding polypeptides and methods based thereon” (priority 2000, published 2007).

Target: BLyS (Homo sapiens, UniProt Q9Y275)
Experiment: Fluorescence anisotropy determination of BLyS-ligand dissociation constants
Assay type: binding
Description: Dissociation constants between the synthetic peptides and BLyS (free in solution) were measured by fluorescence anisotropy (FA). In these experiments, the concentration of the fluorescein-labeled peptide is held constant and the BLyS protein concentration was varied. […] Binding reactions containing 50 nM fluorescein-labeled peptide and a varied concentration of BLyS in a volume between 10 and 20 μL per well were performed in 384 well microplates. Reactions were assayed using a Tecan Polarion fluorescence polarization plate reader. Cross-competition studies between peptides were performed using 50 nM fluorescein-labeled peptide and 1-2 μM BLyS in the presence and absence of 100 μM unlabeled peptide. […] Other buffers in which dissociation constants of BLyS Binding polypeptides were […] include: […] […] The KD of several BLyS binding BAML peptides was determined by fluorescence anisotropy, performed as previously described.

decrease in affinity compared to DX814 (compared to DX814) | improvement in binding affinity for BLyS as compared to 453-01-B07 (compared to 453-01-B07 (SEQ ID NO:31)) | Substance
approximately 10 fold | – | Ac-ANWYDPLTKLSLPDGGK-fitc [DX818]
– | more than 10 fold | Ac-ANWYDSLTKLWLPDGGK-fitc [DX822]
